Data published in patent US20090281049A1, “New use of ginsenoside compound-k in manufacturing medicaments” (priority 2006, published 2009).

Experiments:
[1] = system: carrageenan-induced acute inflammation in mice; test: Carrageenan-induced paw edema in mice; type: in vivo, Kunming mice; conditions: 1 mg/kg po
[2] = system: carrageenan-induced acute inflammation in rats; test: Carrageenan-induced paw edema in rats; type: in vivo, Rat, SD strain; conditions: 1 mg/kg po
Procedure: Animals were firstly divided into large dose group: 10 mg/kg, iv, medium dose group: 5 mg/kg, iv, small dose group: 2.5 mg/kg, iv, an Indomethacin group: 1 mg/kg, po and a blank control group: physiological saline 10 mg/kg, iv. The animals were administered by the foregoing method for 3 days. The volume of the right hind paw of the rats was measured using hydroplethismometer before inflammation induced. 1 hour after the last administration, 0.1 ml 1% carrageenan was injected into the plantar surface of the right hind paw in order to induce inflammation. The volume of the right hind paw of the rats was measured by hydroplethismometer every other hour thereafter respectively. Swell rate and inhibition rate were calculated by the same method as above. Differences among groups were compared with t test.

[3] = system: Adjuvant Arthritis in rats; test: Preventive effect on adjuvant induced adjuvant arthritis in rats; type: in vivo, Rat, SD strain; conditions: 1 mg/kg po
Procedure: (§1) Freund's Adjuvant Complete, purchased from Sigma Company, was injected into the plantar surface of the right hind paw by 0.1 ml in order to induce inflammation in rats.
(§2) Animals were firstly divided into large dose group: 10 mg/kg, iv, medium dose group: 5 mg/kg, iv, small dose group: 2.5 mg/kg, iv, Indomethacin group: 1 mg/kg, po, Tripterygium Wilfordii Hook group: 1.5 mg/kg, po and blank control group: physiological saline 10 mg/kg, iv. The volume of the right hind paw of the rats was measured by using hydroplethismometer before inflammation induced. Then 0.1 ml Freund's Adjuvant Complete was injected into the plantar surface of the right hind paw in order to induce inflammation in rats. The rats were grouped by the foregoing division way in the succeeding day, and to be administered for 15 days. The volume of paw was measured in regular intervals. Swell rate and inhibition rate were calculated by the same method as the foregoing. Differences among groups were compared by t test.

[4] = system: Adjuvant Arthritis in rats; test: Treatment effect on adjuvant induced adjuvant arthritis in rats; type: in vivo, Rat, SD strain; conditions: 1 mg/kg po
Procedure: as §1
as §2, with “1.5 mg/kg, po. and blank” for “1.5 mg/kg, po and blank”, “in rats. 20 days after inflammation induced, the rats were” for “in rats. The rats were”, “foregoing division method and to” for “foregoing division way in the succeeding day, and to”, “administered for 8 days. The” for “administered for 15 days. The”, “were calculated with the same” for “were calculated by the same”, “were compared with t test.” for “were compared by t test.”

[5] = system: Collagen Type II (CII) induced arthritis in rats; test: Preventive effect on Collagen Type II (CII) induced arthritis in rats; type: in vivo, Rat, SD strain; conditions: 9 mg/kg sc
Procedure: (§3) Inflammation-induced agent: Collagen Type II was dissolved in 0.1 mol/L acetic acid to make final concentration be 2 mg/ml collagen solution, and held in 4° C. overnight. The Collagen Type II solution was added to cold Freund's Adjuvant Incomplete by drops (Collagen Type II: Freund's Adjuvant Incomplete=1:1) on the next day, emulsified completely (Type II Collagen solution: Freund's Adjuvant Incomplete=1:1), and the final concentration of Collagen Type II was 1 mg/ml. The Collagen Type II emulsion was reserved in a refrigerator at 4° C.
(§4) Immune method: Each rat was immunized by being injected subcutaneously at 5 points on the back with 0.1 ml emulsion in each point, total of […] (contained 0.5 mg Collagen Type II), and immunized again in the same way 7 days later. An emulsion of 0.1 mol/L acetic acid and Freund's Adjuvant Incomplete was injected in control group. The swell values of the arthrosis in right hind ankle and foot were measured respectively by using a hydroplethismometer before injection and 20 days after immunization.
The Collagen Type II solution, which had been dissolved in acetic acid and held overnight, was adjusted to concentration 2 mg/ml, then added by drops slowly to Freund's Adjuvant Incomplete in proportion of 1:1. After the mixture was emulsified completely, each rat was injected subcutaneously at 5 points on the back with 0.1 ml emulsion in each point (total 0.5 ml in each rat, containing 0.5 mg Collagen Type II) for the first immunization. 7 days later, the second immunization was repeated in the same way.
The animals were divided into large dose group: Ginsenoside Compound-K, 10 mg/kg, iv, medium dose group: Ginsenoside Compound-K, 5 mg/kg, iv, small dose group: Ginsenoside Compound-K, 2.5 mg/kg, iv, Tripterygium Wilfordii Hook group: 1.5 mg/kg, po-, Enbrel group: 9 mg/kg, sc and blank control group: physiological saline 10 mg/kg, iv. The animals of administration groups were administered at the first immunization and stopped administering 8 days after the first immunization. The swell value of arthrosis in ankle and foot was measured by using hydroplethismometer before immunization and on day 20, 22, 24, 27 and 29 after the first immunization respectively. Swell rate and inhibition rate were calculated by the same method as the foregoing. Differences among groups were compared with t test. When the treatment finished, the arthroses in ankle and foot were taken for pathological examination.

[6] = system: Collagen Type II (CII) induced arthritis in rats; test: Treatment effect on Collagen Type II (CII) induced arthritis in rats; type: in vivo, Rat, SD strain; conditions: 9 mg/kg sc
Procedure: as §3, §4
Collagen Type II (CII) and Freund's Adjuvant Incomplete were ground into emulsion and were injected subcutaneously into the back of the rats for immunization. Until the 19th day, most parts of the pedal joint of the rats began to swell. Picked 40 rats out which were with swelled pedal joint and divided them into […] subsequently, i.e. 8 rats in each group. They are respectively […]: Ginsenoside Compound-K, 10 mg/kg, iv, medium dose group: Ginsenoside Compound-K, 5 mg/kg, iv, small dose group: Ginsenoside Compound-K, 2.5 mg/kg, iv, Enbrel group: 9 mg/kg, sc, Tripterygium Wilfordii Hook group: 1.5 mg/kg, po. and blank control group: physiological saline 10 mg/kg, iv. The rats were administered for 8 days consecutively. The swell value of the foot was measured respectively by using hydroplethismometer before inflammation induced and at different time after the onset of symptoms, then calculated swell rate and prohibition rate, and compared the differences among groups with t test.

COc1ccc2c(c1)c(CC(=O)O)c(C)n2C(=O)c1ccc(Cl)cc1 [Indomethacin, reference compound] was tested, and the swell value ([1]; 0 h) was 1.47 ± 0.14 mL, the inhibition rate ([1]; 1 h) was <2.39> % and the swell rate ([1]; 1 h) was “(67.11 ± 17.30) %”. For the same molecule, the swell value ([1]; 1 h) was 2.44 ± 0.19 mL, the inhibition rate ([1]; 2 h) was <16.11> % and the swell rate ([1]; 2 h) was “(60.95 ± 18.36) %”. The swell value ([1]; 2 h) was 2.35 ± 0.20 mL, the inhibition rate ([1]; 4 h) was <36.57> % and the swell rate ([1]; 4 h) was “(51.04 ± 14.09) %”. The swell value ([1]; 4 h) was 2.21 ± 0.11 mL, the inhibition rate ([1]; 6 h) was <24.41> % and the swell rate ([1]; 6 h) was “(55.36 ± 19.90) %”. The swell value ([1]; 6 h) was 2.26 ± 0.11 mL, the swell value ([2]; 0 h) was 1.34 ± 0.15 mL and the inhibition rate ([2]; 1 h) was <4.23> %. The swell rate ([2]; 1 h) was “(22.51 ± 10.19) %”, the swell value ([2]; 1 h) was 1.68 ± 0.10 mL and the inhibition rate ([2]; 2 h) was <20.44> %. For the same molecule, the swell rate ([2]; 2 h) was “(25.65 ± 14.10) %”, the swell value ([2]; 2 h) was 1.72 ± 0.16 mL and the inhibition rate ([2]; 3 h) was <20.17> %. The swell rate ([2]; 3 h) was “(33.28 ± 13.54) %”, the swell value ([2]; 3 h) was 1.82 ± 0.17 mL and the inhibition rate ([2]; 4 h) was <26.76> %. For the same molecule, the swell rate ([2]; 4 h) was “(28.45 ± 15.71) %”, the swell value ([2]; 4 h) was 1.77 ± 0.22 mL and the inhibition rate ([2]; 5 h) was <37.84> %. The swell rate ([2]; 5 h) was “(23.04 ± 11.45) %”, the swell value ([2]; 5 h) was 1.69 ± 0.15 mL and the swell value ([3]; 0 day) was 1.23 ± 0.11 mL. The inhibition rate ([3]; 2 day) was <27.67> %, the swell rate ([3]; 2 day) was “(52.34 ± 15.07) %” and the swell value ([3]; 2 day) was 1.85 ± 0.09 mL. The inhibition rate ([3]; 4 day) was <20.69> %, the swell rate ([3]; 4 day) was “(70.99 ± 17.35) %” and the swell value ([3]; 4 day) was 2.08 ± 0.13 mL. The inhibition rate ([3]; 6 day) was <12.34> %, the swell rate ([3]; 6 day) was “(78.32 ± 23.41) %” and the swell value ([3]; 6 day) was 2.17 ± 0.17 mL. For the same molecule, the inhibition rate ([3]; 9 day) was <4.11> %, the swell rate ([3]; 9 day) was “(69.44 ± 27.12) %” and the swell value ([3]; 9 day) was 2.06 ± 0.23 mL. The inhibition rate ([3]; 11 day) was <32.39> %, the swell rate ([3]; 11 day) was “(52.68 ± 12.02) %” and the swell value ([3]; 11 day) was 1.86 ± 0.13 mL. The inhibition rate ([3]; 13 day) was <35.93> %, the swell rate ([3]; 13 day) was “(53.00 ± 15.57) %” and the swell value ([3]; 13 day) was 1.86 ± 0.13 mL. For the same molecule, the inhibition rate ([3]; 15 day) was <35.50> %, the swell rate ([3]; 15 day) was “(52.00 ± 11.27) %” and the swell value ([3]; 15 day) was 1.86 ± 0.13 mL. The swell value ([4]; 0 day) was 1.14 ± 0.05 mL, the inhibition rate ([4]; 19 day) was <18.65> % and the swell rate ([4]; 19 day) was “(80.03 ± 17.69) %”. For the same molecule, the swell value ([4]; 19 day) was 2.04 ± 0.20 mL, the inhibition rate ([4]; 21 day) was <19.05> % and the swell rate ([4]; 21 day) was “(85.98 ± 15.49) %”. The swell value ([4]; 21 day) was 2.11 ± 0.17 mL, the inhibition rate ([4]; 23 day) was <19.09> % and the swell rate ([4]; 23 day) was “(86.16 ± 15.90) %”. For the same molecule, the swell value ([4]; 23 day) was 2.11 ± 0.17 mL, the inhibition rate ([4]; 26 day) was <20.41> % and the swell rate ([4]; 26 day) was “(89.32 ± 16.25) %”. For the same molecule, the swell value ([4]; 26 day) was 2.15 ± 0.16 mL, the inhibition rate ([4]; 30 day) was <12.14> % and the swell rate ([4]; 30 day) was “(92.39 ± 20.26) %”. The swell value ([4]; 30 day) was 2.18 ± 0.23 mL.

With enbrel the swell value ([5]; 0 day) was 1.06 ± 0.04 mL, the inhibition rate ([5]; 20 day) was <30.52> % and the swell rate ([5]; 20 day) was “(36.48 ± 15.50) %”. For the same molecule, the swell value ([5]; 20 day) was 1.38 ± 0.20 mL, the inhibition rate ([5]; 22 day) was <31.53> % and the swell rate ([5]; 22 day) was “(35.30 ± 14.25) %”. The swell value ([5]; 22 day) was 1.36 ± 0.22 mL, the inhibition rate ([5]; 24 day) was <35.50> % and the swell rate ([5]; 24 day) was “(33.88 ± 13.57) %”. The swell value ([5]; 24 day) was 1.34 ± 0.21 mL, the inhibition rate ([5]; 27 day) was <36.49> % and the swell rate ([5]; 27 day) was “(32.16 ± 15.12) %”. The swell value ([5]; 27 day) was 1.34 ± 0.20 mL, the inhibition rate ([5]; 29 day) was <36.99> % and the swell rate ([5]; 29 day) was “(27.63 ± 10.87) %”. For the same molecule, the swell value ([5]; 29 day) was 1.31 ± 0.16 mL, the swell value ([6]; 0 day) was 1.00 ± 0.08 mL and the inhibition rate ([6]; 20 day) was <4.41> %. The swell rate ([6]; 20 day) was “(51.65 ± 15.35%”, the swell value ([6]; 20 day) was 1.51 ± 0.11 mL and the inhibition rate ([6]; 22 day) was <17.61> %. For the same molecule, the swell rate ([6]; 22 day) was “(49.63 ± 25.60) %”, the swell value ([6]; 22 day) was 1.48 ± 0.15 mL and the inhibition rate ([6]; 23 day) was <20.98> %. For the same molecule, the swell rate ([6]; 23 day) was “(49.20 ± 19.86) %”, the swell value ([6]; 23 day) was 1.48 ± 0.12 mL and the inhibition rate ([6]; 25 day) was <24.74> %. The swell rate ([6]; 25 day) was “(46.43 ± 15.37) %”, the swell value ([6]; 25 day) was 1.46 ± 0.11 mL and the inhibition rate ([6]; 28 day) was <27.88> %. For the same molecule, the swell rate ([6]; 28 day) was “(37.24 ± 17.23) %”, the swell value ([6]; 28 day) was 1.36 ± 0.09 mL and the inhibition rate ([6]; 31 day) was <26.03> %. For the same molecule, the swell rate ([6]; 31 day) was “(36.24 ± 14.64) %” and the swell value ([6]; 31 day) was 1.35 ± 0.08 mL.
